Measurements published in patent US20210298306A1, “PESTICIDALLY ACTIVE AZOLE-AMIDE COMPOUNDS” (SYNGENTA PARTICIPATIONS AG, priority 2018, published 2021).

How the values were obtained:
[1] = tested on: Myzus persicae; experiment: Example B5: Myzus persicae (green peach aphid), feeding/contact activity, sunflower leaf discs; assay type: in vivo; settings: foliar, 144 h, application rate 200 ppm, 6 days after infestation, Myzus persicae mixed ages
Procedure: Example B5: Myzus persicae (Green Peach Aphid):Feeding/Contact Activity
(§1) Sunflower leaf discs were placed onto agar in a 24-well microtiter plate and sprayed with aqueous test solutions prepared from 10,000 ppm DMSO stock solutions. After drying, the leaf discs were infested with an aphid population of mixed ages. The samples were assessed for mortality 6 days after infestation.

[2] = tested on: Myzus persicae; experiment: Example B6: Myzus persicae (green peach aphid), intrinsic activity, sucrose solution, 24-well; assay type: in vivo; settings: 120 h, test rate 12 ppm, 5 days after infestation
Excerpt: Example B6: Myzus persicae (Green Peach Aphid). Intrinsic Activity
Test compounds prepared from 10,000 ppm DMSO stock solutions were applied by pipette into 24-well microtiter plates and mixed with sucrose solution. The plates were closed with a stretched Parafilm. A plastic stencil with 24 holes was placed onto the plate and infested pea seedlings were placed directly on the Parafilm. The infested plate was closed with a gel blotting paper and another plastic stencil and then turned upside down. The samples were assessed for mortality 5 days after infestation.

[3] = tested on: Euschistus heros; experiment: Example B2: Euschistus heros (neotropical brown stink bug), soybean leaves sprayed, N2 nymphs; assay type: in vivo; settings: 120 h, application rate 200 ppm, 5 days after infestation, read-out: effect in at least one of the two categories (mortality or growth inhibition)
Procedure: Example B2: Euschistus heros (Neotropical Brown Stink Bug)
Soybean leaves on agar in 24-well microtiter plates were sprayed with aqueous test solutions prepared from 10,000 ppm DMSO stock solutions. After drying the leaves were infested with N2 nymphs. The samples were assessed for mortality and growth inhibition in comparison to untreated samples 5 days after infestation.
(§2) The following compounds gave an effect of at least 80% in at least one of the two categories (mortality or growth inhibition) at an application rate of 200 ppm: […]

[4] = tested on: Spodoptera littoralis; experiment: Example B7: Spodoptera littoralis (Egyptian cotton leaf worm), cotton leaf discs sprayed, L1 larvae; assay type: in vivo; settings: foliar, 72 h, application rate 200 ppm, 3 days after infestation, read-out: control in at least one of the categories (mortality, anti-feedant effect, or growth inhibition)
Procedure: Example B7: Spodoptera littoralis (Egyptian Cotton Leaf Worm)
Cotton leaf discs were placed onto agar in 24-well microtiter plates and sprayed with aqueous test solutions prepared from 10,000 ppm DMSO stock solutions. After drying the leaf discs were infested with five L1 larvae. The samples were assessed for mortality, anti-feeding effect, and growth inhibition in comparison to untreated samples 3 days after infestation. Control of Spodoptera littoralis by a test sample is given when at least one of the categories mortality, anti-feedant effect, and growth inhibition is higher than the untreated sample.

[5] = tested on: Plutella xylostella; experiment: Example B4: Plutella xylostella (diamond back moth), artificial diet, 24-well, eggs; assay type: in vivo; settings: 192 h, application rate 200 ppm, 8 days after infestation, read-out: effect in at least one of the two categories (mortality or growth inhibition)
Procedure: Example B4: Plutella xylostella (Diamond Back Moth)
24-well microtiter plates with artificial diet were treated with aqueous test solutions prepared from 10,000 ppm DMSO stock solutions by pipetting. After drying, Plutella eggs were pipetted through a plastic stencil onto a gel blotting paper and the plate was closed with it. The samples were assessed for mortality and growth inhibition in comparison to untreated samples 8 days after infestation.
as §2

[6] = tested on: Spodoptera littoralis; experiment: Example B8: Spodoptera littoralis (Egyptian cotton leaf worm), uptake by lettuce roots from agar, eggs; assay type: in vivo; settings: 144 h, test rate 12.5 ppm, 6 days after infestation, lettuce root uptake, read-out: effect in at least one of the three categories (mortality, anti-feeding, or growth inhibition)
Excerpt: Example B8: Spodoptera littoralis (Egyptian Cotton Leaf Worm)
Test compounds were applied by pipette from 10,000 ppm DMSO stock solutions into 24-well plates and mixed with agar. Lettuce seeds were placed onto the agar and the multi well plate was closed by another plate which contained also agar. After 7 days the compound was absorbed by the roots and the lettuce grew into the lid plate. The lettuce leaves were then cut off into the lid plate. Spodoptera eggs were pipetted through a plastic stencil onto a humid gel blotting paper and the lid plate was closed with it. The samples were assessed for mortality, anti-feedant effect and growth inhibition in comparison to untreated samples 6 days after infestation.
The following compounds gave an effect of at least 80% in at least one of the three categories (mortality, anti-feeding, or growth inhibition) at a test rate of 12.5 ppm: […]

[7] = tested on: Thrips tabaci; experiment: Example B9: Thrips tabaci (onion thrips), feeding/contact activity, sunflower leaf discs; assay type: in vivo; settings: foliar, 144 h; application rate 200 ppm; 6 days after infestation; Thrips tabaci mixed ages
Procedure: Example B9: Thrips tabaci (Onion Thrips) Feeding/Contact Activity
as §1, with “on” for “onto”, “in” for “in a”, “plates” for “plate”, “drying” for “drying,”, “a thrips” for “an aphid”

[8] = tested on: Diabrotica balteata; experiment: Example B1: Diabrotica balteata (corn root worm), maize sprouts sprayed, L2 larvae; assay type: in vivo; settings: 96 h, application rate 200 ppm, 4 days after infestation, read-out: effect in at least one of the two categories (mortality or growth inhibition)
Procedure: Example B1: Diabrotica Balteata (Corn Root Worm)
Maize sprouts placed onto an agar layer in 24-well microtiter plates were treated with aqueous test solutions prepared from 10,000 ppm DMSO stock solutions by spraying. After drying, the plates were infested with L2 larvae (6 to 10 per well). The samples were assessed for mortality and growth inhibition in comparison to untreated samples 4 days after infestation.
as §2

[9] = tested on: Chilo suppressalis; experiment: Example B3: Chilo suppressalis (striped rice stemborer), artificial diet, L2 larvae; assay type: in vivo; settings: 144 h, application rate 200 ppm, 6 days after infestation, read-out: control in at least one of the categories (mortality, anti-feedant effect, or growth inhibition)
Procedure: Example B3: Chilo suppressalis (Striped Rice Stemborer)
24-well microtiter plates with artificial diet were treated with aqueous test solutions prepared from 10,000 ppm DMSO stock solutions by pipetting. After drying, the plates were infested with L2 larvae (6-8 per well). The samples were assessed for mortality, anti-feeding effect, and growth inhibition in comparison to untreated samples 6 days after infestation. Control of Chilo suppressalis by a test sample is given when at least one of the categories mortality, anti-feedant effect, and growth inhibition is higher than the untreated sample.

[10] = tested on: Myzus persicae; experiment: Example B10: Myzus persicae (green peach aphid), sucrose solution, 96-well; assay type: in vivo; settings: 120 h, application rate 50 ppm, 5 days after infestation
Excerpt: Example B10: Myzus persicae (Green Peach Aphid)
Test compounds prepared from 10,000 ppm DMSO stock solutions were applied by a liquid handling robot into 96-well microtiter plates and mixed with a sucrose solution. Parafilm was stretched over the 96-well microtiter plate and a plastic stencil with 96 holes was placed onto the plate. Aphids were sieved into the wells directly onto the Parafilm. The infested plates were closed with a gel blotting card and a second plastic stencil and then turned upside down. The samples were assessed for mortality 5 days after infestation.

[11] = tested on: Plutella xylostella; experiment: Example B11: Plutella xylostella (diamondback moth), artificial diet, 96-well, eggs; assay type: in vivo; settings: 216 h, application rate 500 ppm, 9 days after infestation
Procedure: Example B11: Plutella xylostella (Diamondback Moth)
96-well microtiter plates containing artificial diet were treated with aqueous test solutions, prepared from 10,000 ppm DMSO stock solutions, by a liquid handling robot. After drying, eggs (˜30 per well) were infested onto a netted lid which was suspended above the diet. The eggs hatch and L1 larvae move down to the diet. The samples were assessed for mortality 9 days after infestation.
The following compounds gave an effect of at least 80% average mortality at an application rate of 500 ppm: […]

CC(c1ncnn1-c1ncccn1)N(CC1CC1)C(=O)c1cc(OC(F)F)cc(C(F)(F)F)c1 (centres unmarked) [P2, N-(cyclopropylmethyl)-3-(difluoromethoxy)-N-[1-(2-pyrimidin-2-yl-1,2,4-triazol-3-yl)ethyl]-5-(trifluoromethyl) benzamide]
mortality at 200 ppm [1]: ≥ 80%
mortality at 12 ppm [2]: ≥ 80%
percent effect (mortality or growth inhibition) at 200 ppm [3]: ≥ 80%
percent control (mortality, anti-feedant effect or growth inhibition) at 200 ppm [4]: ≥ 80%
percent effect (mortality or growth inhibition) at 200 ppm [5]: ≥ 80%
percent effect (mortality, anti-feeding or growth inhibition) at 12.5 ppm [6]: ≥ 80%
mortality at 200 ppm [7]: ≥ 80%
percent effect (mortality or growth inhibition) at 200 ppm [8]: ≥ 80%
percent control (mortality, anti-feedant effect or growth inhibition) at 200 ppm [9]: ≥ 80%

CC(c1ncnn1-c1ncccn1)N(CC1CC1)C(=O)c1cc(OC(F)(F)F)cc(C(F)(F)F)c1 (centres unmarked) [P4, N-(cyclopropylmethyl)-N-[1-(2-pyrimidin-2-yl-1,2,4-triazol-3-yl)ethyl]-3-(trifluoromethoxy)-5-(trifluoromethyl) benzamide]
mortality at 200 ppm [1]: ≥ 80%
mortality at 12 ppm [2]: ≥ 80%
percent effect (mortality or growth inhibition) at 200 ppm [3]: ≥ 80%
percent control (mortality, anti-feedant effect or growth inhibition) at 200 ppm [4]: ≥ 80%
percent effect (mortality or growth inhibition) at 200 ppm [5]: ≥ 80%
percent effect (mortality or growth inhibition) at 200 ppm [8]: ≥ 80%
percent control (mortality, anti-feedant effect or growth inhibition) at 200 ppm [9]: ≥ 80%

CC(c1ncnn1-c1ncccn1)N(CC1CC1)C(=O)c1cc(SC(F)(F)F)cc(C(F)(F)F)c1 (centres unmarked) [P5, N-(cyclopropylmethyl)-N-[1-(2-pyrimidin-2-yl-1,2,4-triazol-3-yl)ethyl]-3-(trifluoromethyl)-5-(trifluoromethylsulfanyl) benzamide]
mortality at 12 ppm [2]: ≥ 80%
percent effect (mortality or growth inhibition) at 200 ppm [3]: ≥ 80%
percent control (mortality, anti-feedant effect or growth inhibition) at 200 ppm [4]: ≥ 80%
percent effect (mortality or growth inhibition) at 200 ppm [5]: ≥ 80%
percent effect (mortality, anti-feeding or growth inhibition) at 12.5 ppm [6]: ≥ 80%
mortality at 200 ppm [7]: ≥ 80%
percent effect (mortality or growth inhibition) at 200 ppm [8]: ≥ 80%
percent control (mortality, anti-feedant effect or growth inhibition) at 200 ppm [9]: ≥ 80%

CC(NC(=O)c1cc(OCC(F)(F)F)cc(C(F)(F)F)c1)c1ncnn1-c1ncccc1F (centres unmarked) [P14, N-[1-[2-(3-fluoro-2-pyridyl)-1,2,4-triazol-3-yl]ethyl]-3-(2,2,2-trifluoroethoxy)-5-(trifluoromethyl) benzamide]
percent effect (mortality or growth inhibition) at 200 ppm [3]: ≥ 80%
mortality at 50 ppm [10]: ≥ 80%
percent control (mortality, anti-feedant effect or growth inhibition) at 200 ppm [4]: ≥ 80%
percent effect (mortality or growth inhibition) at 200 ppm [5]: ≥ 80%
mortality at 500 ppm [11]: ≥ 80%
percent effect (mortality or growth inhibition) at 200 ppm [8]: ≥ 80%

CC(c1ncnn1-c1ncccn1)N(CC1CC1)C(=O)c1cc(SC(F)F)cc(C(F)(F)F)c1 (centres unmarked) [P18, N-(cyclopropylmethyl)-3-(difluoromethylsulfanyl)-N-[1-(2-pyrimidin-2-yl-1,2,4-triazol-3-yl)ethyl]-5-(trifluoromethyl) benzamide]
mortality at 200 ppm [1]: ≥ 80%
mortality at 12 ppm [2]: ≥ 80%
percent effect (mortality or growth inhibition) at 200 ppm [3]: ≥ 80%
mortality at 50 ppm [10]: ≥ 80%
percent effect (mortality or growth inhibition) at 200 ppm [5]: ≥ 80%
mortality at 200 ppm [7]: ≥ 80%
mortality at 500 ppm [11]: ≥ 80%
percent effect (mortality or growth inhibition) at 200 ppm [8]: ≥ 80%

CC(NC(=O)c1cc(OC(F)(F)F)cc(C(F)(F)F)c1)c1ncnn1-c1ncccn1 (centres unmarked) [P19, N-[1-(2-pyrimidin-2-yl-1,2,4-triazol-3-yl)ethyl]-3-(trifluoromethoxy)-5-(trifluoromethyl) benzamide]
mortality at 200 ppm [1]: ≥ 80%
mortality at 12 ppm [2]: ≥ 80%
percent effect (mortality or growth inhibition) at 200 ppm [3]: ≥ 80%
mortality at 50 ppm [10]: ≥ 80%
percent control (mortality, anti-feedant effect or growth inhibition) at 200 ppm [4]: ≥ 80%
percent effect (mortality or growth inhibition) at 200 ppm [5]: ≥ 80%
mortality at 500 ppm [11]: ≥ 80%
percent effect (mortality or growth inhibition) at 200 ppm [8]: ≥ 80%
percent control (mortality, anti-feedant effect or growth inhibition) at 200 ppm [9]: ≥ 80%

CC(NC(=O)c1cc(OCC(F)F)cc(C(F)(F)F)c1)c1ncnn1-c1ncccn1 (centres unmarked) [P20, 3-(2,2-difluoroethoxy)-N-[1-(2-pyrimidin-2-yl-1,2,4-triazol-3-yl)ethyl]-5-(trifluoromethyl) benzamide]
mortality at 200 ppm [1]: ≥ 80%
mortality at 12 ppm [2]: ≥ 80%
percent effect (mortality or growth inhibition) at 200 ppm [3]: ≥ 80%
mortality at 50 ppm [10]: ≥ 80%
percent control (mortality, anti-feedant effect or growth inhibition) at 200 ppm [4]: ≥ 80%
percent effect (mortality or growth inhibition) at 200 ppm [5]: ≥ 80%
mortality at 500 ppm [11]: ≥ 80%
percent control (mortality, anti-feedant effect or growth inhibition) at 200 ppm [9]: ≥ 80%

CC(NC(=O)c1cncc(OC(F)F)c1)c1ncnn1-c1ccccn1 (centres unmarked) [P23, 5-(difluoromethoxy)-N-[1-[2-(2-pyridyl)-1,2,4-triazol-3-yl]ethyl]pyridine-3-carboxamide]
melting point: 105 to 110 °C
